Consider two molecules from patent US20070149600A1, “Substituted octahydroisoindoles” (priority 2005, published 2007).

In this experiment the target is T1, human MCH1R receptor (Homo sapiens, UniProt Q99705).
T1 construct: host or cells: CHO-K1
Description: Binding assay: [125I]-MCH displacement by SPA on CHO-K1 hMCHR1 membranes. Particulars: calculated from IC50 using the Cheng Prushoff equation; 0.2 nM [125I]-MCH; CHO-K1 hMCHRI membranes. The method, then: The compounds according to the invention were evaluated for their binding to the human MCH1R receptor by the following method:
Compounds. MCH peptide was purchased from Phoenix pharmaceuticals. (Phe^13, [^125I]Tyr^19 Melanine-Concentrating Hormone (human, mouse, rat) ([^125I]-MCH) was obtained from NEN life Science Products. Inc. Boston, Mass. Wheat germ agglutinine SPA beads (RPNQ 0001) were obtained from Amersham-Pharmacia Biotech. All other reagents used are of highest purity from different resources available. Protein Kits, Micro BCA™ Protein Assay Reagent Kit (Cat No. 23235) were purchased from Piece, Rockford, Ill., USA. […]
The radio labeled [^125I]-MCH was diluted with cold MCH in ratio 1:3. […] The results were calculated using Excel program and the curves were drawn using a program GraphPad Prism.
For screening of the substances the amount of the beads used was 0.25 mg/well and the amount of the membrane protein was 4 μg/well. […] The samples were counted using Microbeta counter (Wallac Trilux 1450 Micro beta counter, Wallac, Finland) for 2 minutes and the results were calculated by using the computer program Activity Base.
The Ki value is calculated from IC50 using the Cheng Prushoff equation: Ki=IC50(1+[S]/Km) [Cheng, Y. C.; Prushoff, W. H. Biochem. Pharmacol. 1973, 22, 3099-3108].

Structures can show the parent of a compound that is named as a salt.

T1 sequence (Q99705 whole entry): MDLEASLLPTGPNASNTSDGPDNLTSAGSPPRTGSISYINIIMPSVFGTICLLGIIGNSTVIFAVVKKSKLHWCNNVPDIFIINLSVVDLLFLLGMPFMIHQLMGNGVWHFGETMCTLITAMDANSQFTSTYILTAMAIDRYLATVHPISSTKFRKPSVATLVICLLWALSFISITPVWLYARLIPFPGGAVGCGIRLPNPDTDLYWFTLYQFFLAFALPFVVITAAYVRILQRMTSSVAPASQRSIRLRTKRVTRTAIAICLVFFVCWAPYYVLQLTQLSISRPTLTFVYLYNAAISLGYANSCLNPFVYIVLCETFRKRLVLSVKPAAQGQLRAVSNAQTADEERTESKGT

One may read the Ki as the dissociation constant of the complex between target and ligand, obtained from inhibition or displacement. In the case of `COc1ccc([C@@]23CC[C@@H](NC(=O)c4ccc(C(F)(F)F)cc4F)C[C@@H]2CN(C)C3)cc1OC` (relative stereo) [Example 44, N-[(3aS*,5R*,7aR*)-7a-(3,4-Dimethoxyphenyl)-2-methyloctahydro-1H-isoindol-5-yl]-2-fluoro-4-(trifluoromethyl)benzamide trifluoroacetate], the Ki is 0.288 µM. As for `COc1ccc([C@@]23CC[C@@H](NC(=O)Nc4cc(C)cc(C)c4)C[C@@H]2CN(C)C3)cc1OC` (relative stereo) [Example 48, N-[(3 aS*,5R*,7aR*)-7a-(3,4-Dimethoxyphenyl)-2-methyloctahydro-1H-isoindol-5-yl]-N′-(3,5-dimethylphenyl)urea trifluoroacetate], the Ki is 0.074 µM.
